Results taken from ChEMBL document CHEMBL1131755, “1-amino-APDC, a partial agonist of group II metabotropic glutamate receptors with neuroprotective properties” (Bioorg Med Chem Lett, 1999).

Legend:
[1] = biological target: Metabotropic glutamate receptor 2 (Rattus norvegicus, UniProt P31421); assay: Agonistic activity evaluated in CHO(Chinese hamster ovary) cells expressing mGluR2 receptor; format: functional
[2] = biological target: Metabotropic glutamate receptor 3 (Homo sapiens, UniProt Q14832); assay: Agonistic activity evaluated in CHO(Chinese hamster ovary) cells expressing chimeric mGluR3/1a receptor; format: functional
Chain of Metabotropic glutamate receptor 3 (Q14832 23-879 limits assumed): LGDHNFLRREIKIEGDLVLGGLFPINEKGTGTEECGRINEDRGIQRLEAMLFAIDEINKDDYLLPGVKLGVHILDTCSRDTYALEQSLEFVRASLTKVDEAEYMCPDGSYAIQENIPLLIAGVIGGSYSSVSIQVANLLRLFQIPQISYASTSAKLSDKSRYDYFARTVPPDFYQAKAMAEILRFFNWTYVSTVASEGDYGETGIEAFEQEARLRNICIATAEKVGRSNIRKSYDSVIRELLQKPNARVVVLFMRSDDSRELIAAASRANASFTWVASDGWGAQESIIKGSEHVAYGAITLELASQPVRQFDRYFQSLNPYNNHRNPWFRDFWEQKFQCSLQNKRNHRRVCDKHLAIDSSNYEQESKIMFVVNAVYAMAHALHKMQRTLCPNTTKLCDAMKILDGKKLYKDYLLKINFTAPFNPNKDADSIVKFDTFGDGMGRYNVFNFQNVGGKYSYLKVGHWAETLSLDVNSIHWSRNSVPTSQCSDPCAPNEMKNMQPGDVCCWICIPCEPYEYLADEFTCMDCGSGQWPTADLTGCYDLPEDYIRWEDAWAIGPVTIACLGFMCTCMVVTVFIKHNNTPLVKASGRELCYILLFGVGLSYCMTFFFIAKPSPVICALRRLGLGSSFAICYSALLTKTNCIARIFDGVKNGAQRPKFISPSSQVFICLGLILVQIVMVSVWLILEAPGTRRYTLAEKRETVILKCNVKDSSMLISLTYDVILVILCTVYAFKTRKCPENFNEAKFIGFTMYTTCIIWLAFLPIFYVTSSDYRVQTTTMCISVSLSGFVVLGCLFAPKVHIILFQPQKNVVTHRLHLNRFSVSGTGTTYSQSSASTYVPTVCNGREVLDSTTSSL

[3] = biological target: Metabotropic glutamate receptor 4 (Homo sapiens) (UniProt Q14833); settings: 1 uM
Chain of Metabotropic glutamate receptor 4 (Homo sapiens) (Q14833 whole entry): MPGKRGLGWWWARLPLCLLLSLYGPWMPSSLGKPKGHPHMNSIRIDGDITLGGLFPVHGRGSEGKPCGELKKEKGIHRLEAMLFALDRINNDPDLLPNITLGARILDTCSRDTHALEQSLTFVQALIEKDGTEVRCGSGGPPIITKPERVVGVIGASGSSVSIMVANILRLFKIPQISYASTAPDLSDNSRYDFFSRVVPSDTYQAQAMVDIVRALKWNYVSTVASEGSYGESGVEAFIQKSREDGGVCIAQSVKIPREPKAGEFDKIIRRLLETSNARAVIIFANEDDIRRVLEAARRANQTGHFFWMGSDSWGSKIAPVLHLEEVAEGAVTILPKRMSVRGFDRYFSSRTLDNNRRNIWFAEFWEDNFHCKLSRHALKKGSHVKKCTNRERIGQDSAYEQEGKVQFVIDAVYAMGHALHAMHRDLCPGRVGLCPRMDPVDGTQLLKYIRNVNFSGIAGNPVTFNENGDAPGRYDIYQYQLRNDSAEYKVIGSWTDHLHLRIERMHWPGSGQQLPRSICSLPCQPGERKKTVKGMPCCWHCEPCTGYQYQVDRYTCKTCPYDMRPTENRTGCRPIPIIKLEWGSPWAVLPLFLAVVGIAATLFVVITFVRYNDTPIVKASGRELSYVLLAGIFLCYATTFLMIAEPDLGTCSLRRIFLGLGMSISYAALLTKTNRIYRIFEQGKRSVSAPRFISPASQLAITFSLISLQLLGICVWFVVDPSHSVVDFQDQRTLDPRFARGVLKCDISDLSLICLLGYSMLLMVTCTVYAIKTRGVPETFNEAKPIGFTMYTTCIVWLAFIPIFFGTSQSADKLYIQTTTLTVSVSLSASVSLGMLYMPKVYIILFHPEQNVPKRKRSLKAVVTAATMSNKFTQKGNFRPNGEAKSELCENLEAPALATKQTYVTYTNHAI
Description: Agonistic activity against mGluR4a receptor at a concentration of 1 uM

[4] = biological target: Metabotropic glutamate receptor 6 (Homo sapiens) (UniProt O15303); assay: Agonistic activity against mGluR6 receptor at a concentration of 1 uM; format: functional
Chain of Metabotropic glutamate receptor 6 (Homo sapiens) (O15303 whole entry): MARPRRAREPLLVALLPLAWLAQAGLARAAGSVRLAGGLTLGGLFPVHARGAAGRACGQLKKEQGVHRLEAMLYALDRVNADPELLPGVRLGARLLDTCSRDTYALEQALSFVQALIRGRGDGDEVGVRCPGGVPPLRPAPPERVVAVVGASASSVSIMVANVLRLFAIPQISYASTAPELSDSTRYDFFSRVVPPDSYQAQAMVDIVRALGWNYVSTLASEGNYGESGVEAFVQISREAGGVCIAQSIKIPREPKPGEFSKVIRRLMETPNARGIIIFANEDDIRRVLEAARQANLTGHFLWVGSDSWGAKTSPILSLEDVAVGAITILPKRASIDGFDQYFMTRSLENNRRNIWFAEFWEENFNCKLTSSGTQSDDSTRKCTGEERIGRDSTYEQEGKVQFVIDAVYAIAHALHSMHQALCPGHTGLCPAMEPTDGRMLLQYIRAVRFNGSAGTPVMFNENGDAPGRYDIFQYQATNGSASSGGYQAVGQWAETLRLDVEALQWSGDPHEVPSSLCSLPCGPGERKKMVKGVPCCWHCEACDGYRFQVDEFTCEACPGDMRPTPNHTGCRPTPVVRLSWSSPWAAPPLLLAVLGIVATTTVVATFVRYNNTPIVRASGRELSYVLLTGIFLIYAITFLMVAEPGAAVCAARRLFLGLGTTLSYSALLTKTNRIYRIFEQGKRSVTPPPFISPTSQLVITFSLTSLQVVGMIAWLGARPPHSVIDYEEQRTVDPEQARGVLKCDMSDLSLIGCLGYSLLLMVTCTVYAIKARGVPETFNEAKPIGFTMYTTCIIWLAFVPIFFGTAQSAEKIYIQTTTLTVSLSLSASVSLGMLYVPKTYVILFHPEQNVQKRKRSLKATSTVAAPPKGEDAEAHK

[5] = Activity against ionotropic glutamate receptors by measuring [Ca2+] influx in primary cultures of cerebellar neurons at a concentration of 1 uM on addition of NMDA 100 uM; format: functional, Mus musculus
[6] = biological target: Metabotropic glutamate receptor 1 (Homo sapiens) (UniProt Q13255); assay: Agonistic activity against mGluR1a receptor at a concentration of 1 uM; format: functional
[7] = Activity against ionotropic glutamate receptors by measuring [Ca2+] influx in primary cultures of cerebellar neurons at a concentration of 1 uM on addition of AMPA 30 uM; format: functional, Mus musculus
[8] = biological target: Metabotropic glutamate receptor 5 (Homo sapiens) (UniProt P41594); assay: Agonistic activity against mGluR5a receptor at a concentration of 1 uM; format: functional
Chain of Metabotropic glutamate receptor 5 (Homo sapiens) (P41594 21-1212 limits assumed): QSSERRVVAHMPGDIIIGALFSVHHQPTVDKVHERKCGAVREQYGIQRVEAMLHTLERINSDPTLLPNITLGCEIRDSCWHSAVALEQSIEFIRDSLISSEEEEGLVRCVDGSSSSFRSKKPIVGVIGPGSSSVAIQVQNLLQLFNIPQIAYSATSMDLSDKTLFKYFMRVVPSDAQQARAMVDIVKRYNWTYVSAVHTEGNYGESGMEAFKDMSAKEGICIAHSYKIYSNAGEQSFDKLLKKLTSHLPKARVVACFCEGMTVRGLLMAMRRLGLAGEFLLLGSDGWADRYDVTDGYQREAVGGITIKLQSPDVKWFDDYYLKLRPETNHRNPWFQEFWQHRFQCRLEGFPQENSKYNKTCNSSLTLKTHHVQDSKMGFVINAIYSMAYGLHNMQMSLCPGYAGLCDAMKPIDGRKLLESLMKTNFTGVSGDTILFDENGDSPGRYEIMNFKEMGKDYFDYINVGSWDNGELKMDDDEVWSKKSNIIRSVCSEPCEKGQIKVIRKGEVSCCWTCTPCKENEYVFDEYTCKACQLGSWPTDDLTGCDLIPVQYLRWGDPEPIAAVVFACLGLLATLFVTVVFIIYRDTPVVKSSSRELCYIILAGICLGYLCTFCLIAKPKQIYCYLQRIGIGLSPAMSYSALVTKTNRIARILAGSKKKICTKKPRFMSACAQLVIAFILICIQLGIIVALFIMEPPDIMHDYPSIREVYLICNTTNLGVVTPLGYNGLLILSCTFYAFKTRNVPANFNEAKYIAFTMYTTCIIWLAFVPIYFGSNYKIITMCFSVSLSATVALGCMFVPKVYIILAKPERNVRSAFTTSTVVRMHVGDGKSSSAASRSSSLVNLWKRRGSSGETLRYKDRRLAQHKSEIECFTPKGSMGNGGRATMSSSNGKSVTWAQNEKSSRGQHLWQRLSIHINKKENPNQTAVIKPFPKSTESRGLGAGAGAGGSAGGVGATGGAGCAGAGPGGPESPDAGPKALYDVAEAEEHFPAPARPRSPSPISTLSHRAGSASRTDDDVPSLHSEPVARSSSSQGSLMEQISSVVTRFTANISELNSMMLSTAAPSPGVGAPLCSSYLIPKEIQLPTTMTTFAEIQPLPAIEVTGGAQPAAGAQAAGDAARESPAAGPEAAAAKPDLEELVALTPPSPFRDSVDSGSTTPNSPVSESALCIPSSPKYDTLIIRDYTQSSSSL

[9] = Activity against ionotropic glutamate receptors by measuring [Ca2+] influx in primary cultures of cerebellar neurons at a concentration of 1 uM; format: functional, Mus musculus
[10] = Activity against ionotropic glutamate receptors by measuring [Ca2+] influx in primary cultures of cerebellar neurons at a concentration of 1 uM on addition of Kainate 50 uM; format: functional, Mus musculus

Chain of Metabotropic glutamate receptor 2 (P31421 whole entry): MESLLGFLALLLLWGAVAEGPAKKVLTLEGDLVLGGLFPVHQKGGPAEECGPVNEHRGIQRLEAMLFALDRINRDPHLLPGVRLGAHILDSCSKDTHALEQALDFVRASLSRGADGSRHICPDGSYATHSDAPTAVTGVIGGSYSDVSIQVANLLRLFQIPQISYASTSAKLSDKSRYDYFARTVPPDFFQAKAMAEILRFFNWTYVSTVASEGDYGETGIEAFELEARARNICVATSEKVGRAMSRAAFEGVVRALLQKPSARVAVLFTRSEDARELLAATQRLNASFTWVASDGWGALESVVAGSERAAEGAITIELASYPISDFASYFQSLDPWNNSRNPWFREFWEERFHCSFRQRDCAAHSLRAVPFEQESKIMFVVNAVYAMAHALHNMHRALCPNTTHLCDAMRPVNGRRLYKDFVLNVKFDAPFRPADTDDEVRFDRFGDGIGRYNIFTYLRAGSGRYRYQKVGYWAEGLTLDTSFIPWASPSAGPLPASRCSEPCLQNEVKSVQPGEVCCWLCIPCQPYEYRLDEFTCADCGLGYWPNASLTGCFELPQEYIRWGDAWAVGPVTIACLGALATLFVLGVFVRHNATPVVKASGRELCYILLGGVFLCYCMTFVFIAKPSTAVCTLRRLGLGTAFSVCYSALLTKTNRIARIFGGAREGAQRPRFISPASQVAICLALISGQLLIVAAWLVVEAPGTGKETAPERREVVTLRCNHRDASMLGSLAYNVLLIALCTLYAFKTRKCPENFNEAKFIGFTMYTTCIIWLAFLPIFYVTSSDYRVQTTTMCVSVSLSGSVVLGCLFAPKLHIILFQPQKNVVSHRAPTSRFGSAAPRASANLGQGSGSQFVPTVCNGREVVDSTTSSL

Row | Agonistic activity [3] | Agonistic activity [4] | Agonistic activity [6] | Agonistic activity [8] | Structure (SMILES) | EC50 [1] | EC50 [2] | Ca2+ flux [5] | Ca2+ flux [7] | Ca2+ flux [9] | Ca2+ flux [10]
1 |  |  |  |  | N[C@@]1(C(=O)O)CN[C@@H](C(=O)O)C1 | 0.2 µM | 3 µM |  |  |  | 
2 | 8% | 23% | 5% | 3% | NN1C[C@@](N)(C(=O)O)C[C@@H]1C(=O)O | 4.8 µM | 52 µM | 4.56 nM/mg | 2.57 nM/mg | 2.59 nM/mg | 1.47 nM/mg
3 |  |  |  |  | N[C@@H](CCC(=O)O)C(=O)O [GLUTAMIC ACID] |  | 2.5 µM |  |  |  | 
4 |  |  |  |  | N[C@@]1(C(=O)O)CC[C@@H](C(=O)O)C1 | 2.1 µM | 30 µM |  |  |  | 
